Source: article PMC4301955 (ChemMedChem, 2012)
pEC50, pIC50: −log10 of the molar value. Several values for one entry are separate records, joined by “and”; a condition that tells them apart may be missing. Equal entries are not always repeated.

Experiments:
full-length human ERα = target: T1, full-length human ERα (Homo sapiens, UniProt P03372); assay type: cell-based; conditions: for Agonist mode ERα (% E2): HepG2 cells, average efficacy (mean ± s.e.m.) as percentage of 10^−5 M 17β-estradiol
T1 sequence (P03372 1-595): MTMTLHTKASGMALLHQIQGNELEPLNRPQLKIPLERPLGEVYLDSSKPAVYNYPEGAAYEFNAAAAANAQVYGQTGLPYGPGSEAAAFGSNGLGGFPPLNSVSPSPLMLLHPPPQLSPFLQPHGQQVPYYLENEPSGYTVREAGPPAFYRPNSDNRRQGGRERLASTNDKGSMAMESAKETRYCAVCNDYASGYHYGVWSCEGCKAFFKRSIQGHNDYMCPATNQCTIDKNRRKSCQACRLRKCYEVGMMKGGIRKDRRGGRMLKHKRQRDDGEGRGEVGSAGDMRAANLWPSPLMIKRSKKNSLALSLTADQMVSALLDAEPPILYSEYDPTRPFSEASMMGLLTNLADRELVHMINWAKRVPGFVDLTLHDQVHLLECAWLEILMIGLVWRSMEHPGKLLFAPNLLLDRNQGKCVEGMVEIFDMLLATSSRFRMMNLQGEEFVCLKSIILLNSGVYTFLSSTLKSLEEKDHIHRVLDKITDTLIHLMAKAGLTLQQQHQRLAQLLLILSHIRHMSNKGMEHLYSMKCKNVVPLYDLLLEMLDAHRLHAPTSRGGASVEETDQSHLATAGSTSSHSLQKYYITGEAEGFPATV

full-length human ERβ [1] = target: T2, full-length human ERβ (Homo sapiens, UniProt Q92731); assay type: cell-based; conditions: HepG2 cells; average efficacy (mean ± s.e.m.) as percentage of 10^−5 M 17β-estradiol
T2 sequence (Q92731 whole entry): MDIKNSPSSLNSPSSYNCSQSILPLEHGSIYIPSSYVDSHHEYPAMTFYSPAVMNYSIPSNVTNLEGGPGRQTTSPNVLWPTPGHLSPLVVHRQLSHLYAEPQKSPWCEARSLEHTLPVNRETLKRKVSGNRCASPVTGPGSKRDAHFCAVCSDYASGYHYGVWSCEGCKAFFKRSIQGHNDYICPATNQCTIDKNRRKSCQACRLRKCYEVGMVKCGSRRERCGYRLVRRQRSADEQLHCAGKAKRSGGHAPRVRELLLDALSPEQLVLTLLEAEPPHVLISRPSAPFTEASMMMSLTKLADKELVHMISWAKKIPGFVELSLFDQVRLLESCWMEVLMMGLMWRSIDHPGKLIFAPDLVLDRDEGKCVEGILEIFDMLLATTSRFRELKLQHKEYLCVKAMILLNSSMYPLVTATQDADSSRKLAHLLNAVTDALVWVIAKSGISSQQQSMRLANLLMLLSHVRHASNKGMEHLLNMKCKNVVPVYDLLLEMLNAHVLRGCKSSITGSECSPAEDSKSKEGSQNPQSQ

full-length human ERβ [2] = target: T2, full-length human ERβ; assay type: cell-based
[3] = target: T3, purified full-length human ERα (Homo sapiens, UniProt P03372); conditions: for Relative binding affinity (RBA) ERα: IC50 estradiol/IC50 compound ×100, estradiol = 100%, ± range or SD, n = 2–3, 10 nM [3H]estradiol, 18–24 h at 0 °C
T3 sequence (P03372 1-595): T1 sequence (P03372 1-595)

[4] = target: purified full-length human ERβ (Homo sapiens, UniProt Q92731); conditions: IC50 estradiol/IC50 compound ×100, estradiol = 100%; ± range or SD, n = 2–3; 10 nM [3H]estradiol, 18–24 h at 0 °C
Chain of purified full-length human ERβ (Q92731 whole entry): as above

ERα+ MCF-7 cells = conditions: for Agonist mode MCF-7 (% E2): ERα+ MCF-7 cells with ERE reporter, average efficacy (mean ± s.e.m.) as percentage of 10^−5 M 17β-estradiol

| Compound | pEC50 (full-length human ERα) | Agonist mode ERα (% E2) (full-length human ERα) | Agonist mode ERβ (% E2) (full-length human ERβ [1]) | pIC50 (full-length human ERβ [2]) | Relative binding affinity (RBA) ERα [3] | Relative binding affinity (RBA) ERβ [4] | Agonist mode MCF-7 (% E2) (ERα+ MCF-7 cells) | Antagonist mode ERβ (% E2) (full-length human ERβ [2]) | α/β ratio ([3]; ratio of the RBA for ERα to the RBA for ERβ) | Activity profile in MCF-7 cells (in words) (ERα+ MCF-7 cells; 3xERE-luciferase, ERα-positive MCF-7 cells) |
| --- | --- | --- | --- | --- | --- | --- | --- | --- | --- | --- |
| O=S(=O)(Oc1ccccc1Cl)C1CC2OC1C(c1ccc(O)cc1)=C2c1ccc(O)cc1 (centres unmarked) [Compound 2b, 5,6-Bis-(4-hydroxyphenyl)-7-oxabicyclo[2.2.1]hept-5-ene-2-sulfonic Acid 2-Chlorophenyl Ester] | < 5.00 | 29 ± 5 | 1 ± 1 | < 5.00 | 19.0% and 19.00 ±4.6% | 1.76% and 1.76 ±0.13% | −7 ± 2 |  |  |  |
| C[C@]12CC[C@@H]3c4ccc(O)cc4C[C@@H](CCCCCCCCC[S+]([O-])CCCC(F)(F)C(F)(F)F)[C@H]3[C@@H]1CC[C@@H]2O (some centres unmarked) [Faslodex, reference compound] |  | 1 ± 1 |  |  |  |  | −4 ± 4 |  |  |  |
| CC/C(=C(\c1ccc(O)cc1)c1ccc(OCCN(C)C)cc1)c1ccccc1 [Compound 4-OHT, 4-hydroxytamoxifen, reference compound] |  |  | −1 ± 1 |  |  |  | −11 ± 1 | −20 ± 2 |  |  |
| O=S(=O)(Oc1cccc2ccccc12)C1CC2OC1C(c1ccc(O)cc1)=C2c1ccc(O)cc1 (centres unmarked) [Compound 2m] |  | 29 ± 1 | 1 ± 2 |  | 5.03 ±1.5% | 0.478 ±0.12% | −4 ± 1 |  | 10.52 |  |
| O=S(=O)(Oc1ccccc1)[C@H]1C[C@H]2O[C@@H]1C(c1ccc(O)cc1)=C2c1ccc(O)cc1 [Compound 1] |  |  |  |  |  |  | 21 ± 4 |  |  | limited agonist activity |
